What was measured:
Assay in all cases: relative viability (nuclei count vs DMSO), 5 days (fraction); higher = more cells survive
[1] = compound: C1/C(=C\C2=CC=CS2)/C(=O)/C(=C/C3=CC=CS3)/C1 + CCNC(=O)c1noc(-c2cc(C(C)C)c(O)cc2O)c1-c1ccc(CN2CCOCC2)cc1 [Luminespib] (partner 0.01 µM)
How it was run: (§1)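 Five library-drug doses in √10 steps were combined with a fixed anchor-drug dose, or a single drug was given alone, by pin tool to lung cancer cell lines in 1536-well plates the day after seeding. Nuclei were stained and counted after 5 days. Relative viability is the nuclei count in treated wells over that in vehicle wells, taken as the median of duplicate plates.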

[2] = compound: C1/C(=C\C2=CC=CS2)/C(=O)/C(=C/C3=CC=CS3)/C1 + CS(=O)(=O)CCNCc1ccc(-c2ccc3ncnc(Nc4ccc(OCc5cccc(F)c5)c(Cl)c4)c3c2)o1 [Lapatinib] (partner 2 µM)
How it was run: as §1

[3] = compound: C1/C(=C\C2=CC=CS2)/C(=O)/C(=C/C3=CC=CS3)/C1 + NC(=O)Nc1cc(-c2cccc(F)c2)sc1C(=O)N[C@H]1CCCNC1 [AZD7762] (partner 0.2 µM)
How it was run: as §1

[4] = compound: C[C@]12O[C@H](C[C@]1(O)CO)n1c3ccccc3c3c4c(c5c6ccccc6n2c5c31)CNC4=O [Lestaurtinib] + CS(=O)(=O)N1CCN(Cc2cc3nc(-c4cccc5[nH]ncc45)nc(N4CCOCC4)c3s2)CC1 [Pictilisib] (partner 1 µM)
How it was run: as §1

Cell Line	relative viability ([1]; first compound 0.2 µM)	relative viability ([1]; first compound 0.6325 µM)	relative viability ([1]; first compound 2 µM)	relative viability ([1]; first compound 6.325 µM)	relative viability ([1]; first compound 20 µM)	relative viability ([2]; first compound 0.2 µM)	relative viability ([2]; first compound 0.6325 µM)	relative viability ([2]; first compound 2 µM)	relative viability ([2]; first compound 6.325 µM)	relative viability ([2]; first compound 20 µM)	relative viability ([3]; first compound 0.2 µM)	relative viability ([3]; first compound 0.6325 µM)	relative viability ([3]; first compound 2 µM)	relative viability ([3]; first compound 6.325 µM)	relative viability ([3]; first compound 20 µM)	relative viability ([4]; first compound 0.005 µM)	relative viability ([4]; first compound 0.01581 µM)	relative viability ([4]; first compound 0.05 µM)	relative viability ([4]; first compound 0.1581 µM)	relative viability ([4]; first compound 0.5 µM)
LCLC-97TM1	0.734	0.813	0.754	0.782	0.803	1.14	0.806	1.15	0.955	1.18	0.3	0.254	0.259	0.252	0.14	0.197	0.163	0.138	0.139	0.125
BEN	0.477	0.403	0.476	0.344	0.253	0.621	0.801	0.795	0.488	0.611	0.739	0.635	0.774	0.643	0.679	0.641	0.693	0.452	0.481	0.281
LC-2-ad	1.2	1.14	1.12	1.04	0.961	0.891	1.03	0.939	0.747	0.973	0.871	0.899	0.871	0.72	0.825	0.369	0.333	0.204	0.167	0.113
ABC-1	0.33	0.853	1.04	0.428	0.521	1.28	1.09	1.03	0.971	1.27	1.01	1.04	0.905	0.528	1	0.676	0.747	0.4	0.596	0.226
NCI-H647	0.154	0.186	0.149	0.203	0.158	1.13	1.26	1.28	0.763	1	0.504	0.471	0.446	0.445	0.592	0.413	0.289	0.197	0.193	0.105
NCI-H1755	0.51	0.402	0.642	0.341	0.274	1.07	1.03	1.09	0.882	0.993	0.551	0.421	0.436	0.426	0.335	0.444	0.492	0.211	0.269	0.175
EPLC-272H	0.53	0.326	0.267	0.513	0.561	1.04	0.952	1.1	0.889	0.962	0.179	0.276	0.182	0.221	0.183	0.292	0.318	0.212	0.286	0.305
NCI-H1437	1.26	1.23	1.06	0.95	1.09	0.751	0.788	0.791	0.748	0.692	1.14	1.2	1.19	1.03	1.1	0.466	0.491	0.375	0.245	0.14

From the supplement of paper PMC10307832
